# Laboratory results reported in publication PMC8362126, “Proteolysis Targeting Chimera (PROTAC) for Macrophage Migration Inhibitory Factor (MIF) Has Anti‐Proliferative Activity in Lung Cancer Cells” (Angewandte Chemie (International Ed. in English), 2021).
# Where “and” joins values, the source holds several entries; their conditions need not be identical. Equal entries are not always repeated. Entries after “also recorded” stand apart in the source; their conditions may differ.
# Columns and labels:
# A549 cells = test: Cell cycle analysis by flow cytometry (propidium iodide); format: cell-based, human; conditions: 48 h; for proportion of cells at the G2/M phase: control group 12 %
# Method: The effect of MIF‐directed PROTAC MD13 on cell cycle progression was further analyzed using flow cytometry (Figure 6). A549 cells were treated with MD13 at concentrations of 1, 2, or 5 μM for the duration of 48 h before analysis using flow cytometry. […] The proportion of cells at the G2/M phase is 12 % for the control group. This percentage increases to 17 %, 19 %, and 23 % upon treatment with 1, 2, and 5 μM MD13, respectively. […]
# Flow cytometry. For cell cycle analysis, A549 cells were seeded in 6 -well plates at a density of 1x10^5 per well. The next day, the cells were treated with the appropriate compound or vehicle for 48h. Subsequently, the cells were washed with PBS (3 ×) and then harvested after trypinzation. After centrifugation at 300g, the cells were incubated with a solutio n containing 20 µg/ml propidium iodide (PI) (Sigma, P4864) and 0.1% (v/v) Triton -X100 (Sigma, T8787) for 15 min at room temperature. Fluorescence was detected by a Cytoflex flow cytometer […]
# (§1) (1 picture or pasted object on this page, not shown here)
# (Beckman Coulter, Woerden, the Netherlands) immediately. 30,000 cells were collected for each sample. Data were analyzed using FlowJo software (Tree start, Ashland, USA). […]
# MIF [1] = molecular target: T1, MIF (Homo sapiens, UniProt P14174); test: MIF degradation in HEK293 cells, western-blot; format: cell-based; design: endogenous in cells; conditions: 200 nM
# T1 sequence (P14174 2-115 limits assumed): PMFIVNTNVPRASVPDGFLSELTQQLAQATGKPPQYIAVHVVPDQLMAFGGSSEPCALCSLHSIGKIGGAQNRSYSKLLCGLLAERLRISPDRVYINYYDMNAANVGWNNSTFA
# MIF [2] = molecular target: T1, MIF; test: MIF degradation in A549 cells, cell lysate-based ELISA; design: endogenous in cells; host or cells: A549 (ATCC CCL-185); conditions: A549 cells; for degradation [%] 2 μM: vs DMSO, mean±SD n=3
# Method: In addition, A549 cells have been successfully used for assessing activity of cereblon ligand‐based PROTACs previously.[42] Therefore, A549 is a suitable cell line for evaluating the effect of our putative MIF‐directed PROTACs MD1 to MD12 on MIF protein levels. The reduction in MIF levels were monitored in A549 cells that were treated with two different PROTAC concentrations (20 and 2 μM) for 12 h in order to estimate the dose dependency, which is important for PROTACs because of the Hook effect.[35] The MIF levels in cell lysates were analyzed using an enzyme‐linked immunosorbent assay (ELISA).
# S3. ELISA screening of MIF protein level on MIF-directed PROTACs
# Cell culture. Human A549 lung cancer cells (ATCCCCL-185) or HEK293 kidney […]
# containing 10% (v/v) fetal bovine serum (FBS), 100 U/mL penicillin/streptomycin […]
# ELISA. 7×10^5 A549 cells per well were plated in 6-well plates. The next day, cells were treated with a solution of compounds or the vehicle for 12 h. Subsequently, the culture medium was removed and cells were washed twice with cold PBS and collected after trypsin (0.5 mL) degestion. Cells were then lyzed in lysis buffer (150 mM NaCl, 50 mM Hepes pH 7.5, 5 mM EDTA, 0.1% (w/v) NP40) containing protease inhibitor cocktail (Roche, #11836153001) and resuspended vigourously. The supernatant was collected after spinning down at 16 000g at 4 °C for 30 min. The total protein concentration was determined with PierceTM BCA protein assay kit ( ThermoFisher , #23225). The protein concentration was normalized between samples. The relative MIF levels from 1µg total protein were determined by ELISA with the human MIF DuoSet ELISA kit according to the instructions of the manufacturer (R&D systems, #DY289).
# Figure S1. Screening of compounds for MIF degradation activity by cell lysate -based ELISA.
# A549 cells were treated with compounds at (A) 20 or (B) 2 µM for 12 h. Data was normalized […]
# as §1
# MIF [3] = molecular target: T1, MIF; test: MIF degradation in A549 cells, western-blot; format: cell-based; design: endogenous in cells; host or cells: A549 (ATCC CCL-185)
# Method: The concentration dependence of PROTAC MD13‐mediated induction of MIF degradation in A549 cells was investigated using western‐blot. […] The MIF levels were normalized to the vehicle treated control and plotted to the respective MD13 concentrations. This provided a DC50 of around 100 nM and a maximal degradation of around 90–95 % at concentrations higher than 1 μM (Figure 3 B). The DC50 of MD13 measured by ELISA assay was about 200 nM (Figure 3 C), which is in line with the result from western‐blot. […]
# Cell lysates were prepared using the protocol described above. About 10−40 μg of total protein was mixed with the 4× Laemmli Loading Dye (250 mM Tris, pH 6.8, 40% glycerol, 5% SDS, 0.005% bromophenol blue, 4% β-mercaptoethanol) and heated at 95−100 °C for 5 min and loaded onto a 12% Bis-Tris gel (Bio-Rad Laboratories, #4561084) and proteins were separated at 120V. Afterwards, proteins were transferred to polyvinylidene fluoride (PVDF) membranes, subsequently non-specific antibody binding was blocked with 5% nonfat dry milk (BIO-RAD, #1706404) in TBST buffer and incubated overnight at 4 °C with one of the following primary antibodies: anti-MIF (1:1000, ThermoFisher, #PA5-27343 ) or anti-β-actin (1:10000 Cell Signalling, #8457). The membranes were further incubated with a goat anti-rabbit HRP-conjugated secondary antibody (1:2000, DAKO, p0448) for 2 h at room temperature. Proteins were visualized with an ECLTM Prime Western Blotting System (GE Healthcare #RPN2232). The immunoblot was generated by ChemiDoc MP Imaging Systems (Bio-Rad) and analyzed by the ImageJ software. […]
# As a control, the same experiment was repeated and analyzed by a western-blot assay (Figure 3B). The potency estimated from the Western blot assay was 1 µM (Figure 3C), which is consistent with the result from the ELISA assay. The “Hook effect” […]
# MIF [4] = molecular target: T1, MIF; test: MIF degradation in A549 cells, cell lysate-based ELISA; design: endogenous in cells; host or cells: A549 (ATCC CCL-185); conditions: 12 h, vs DMSO, mean±SD n=3
SMILES,proportion of cells at the G2/M phase (A549 cells; 1 μM),proportion of cells at the G2/M phase (A549 cells; 2 μM),proportion of cells at the G2/M phase (A549 cells; 5 μM),MIF degradation (MIF [1]),degradation [%] 2 μM (MIF [2]; 12 h),"DC50 (MIF [2]; 12 h, ELISA, read-out: DC50)","Hook effect (MIF [2]; at 20 μM, ELISA and western-blot)","Dmax (MIF [3]; A549, A549 cells, 12 h, western-blot, concentrations higher than 1 μM, read-out: maximal degradation (Dmax))","reduction of MIF protein levels within 3 hours (MIF [3]; A549 cells, 3 hours)","maximal degradation (Dmax) (MIF [3]; A549 cells, 12 h, western-blot, concentrations higher than 1 μM)","DC50 (MIF [3]; A549 cells, 12 h, western-blot, read-out: DC50)","recovery of the MIF levels after 48 h (MIF [3]; A549 cells, 48 h)","MIF degradation after 6 h (MIF [3]; A549 cells, time course, 6 h)","time of treatment after which MIF degradation becomes visible (MIF [3]; A549 cells, MD9 at 10 μM)",degradation [%] 0.2 μM (MIF [4]),effect on the cell cycle (A549 cells; 5 μM),"effect on MIF level relative to control (MIF [3]; A549 cells, 12 hours, inactive control experiment)","rescue of MD9 mediated MIF degradation (MIF [3]; A549 cells, 2 hours pretreatment (1 100 µM, 3 50 µM, 4 50 µM, Bortezomib), then 10 µM MD9 12 h)","rescue of MD13 mediated MIF degradation (MIF [3]; A549 cells, co-treatment (Bortezomib) or 1 hour pretreatment (3, 4) with MD13)"
O=C1CCC(N2C(=O)c3cccc(NCCCCCCCC(=O)Nc4ccc(N5Cc6ccc(O)cc6OC5=O)cc4)c3C2=O)C(=O)N1 (stereo not drawn) [MD13],17%,19%,23%,more than 90%,91% and 91±5%,~200 nM,Hook effect,90 to 95%,about 80%,> 90%,~100 nM and < 100 nM,slight recovery,> 92%,3 h,71% and 71±7%,,,,
CN1C(=O)CCC(N2C(=O)c3cccc(NCCCCCCCC(=O)Nc4ccc(N5Cc6ccc(O)cc6OC5=O)cc4)c3C2=O)C1=O (stereo not drawn) [MD15],,,,,not capable of inducing MIF degradation and n.s.,,,,,,,,,,not capable of inducing MIF degradation and n.s.,little or no effect,not able to reduce the MIF levels; also recorded: no effect on MIF protein level,,
COc1ccc(N2Cc3ccc(O)cc3OC2=O)cc1OC [compound 3],,,,,,,,,,,,,,,,,,partial to complete rescue; also recorded: rescued,rescued MIF from degradation; also recorded: able to abolish the MD13 triggered degradation
